Source: PubChem BioAssay (NCI)
“And” between values parts separate entries of the source, which are not always exact repeats. Equal values may be shown once.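 Compound exposure: 48 hours, 5 concentrations, 96-well plates. GI50 = concentration required for 50% inhibition of growth. The concentration for full growth arrest is given as TGI.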

Tests used:
Experiment in all cases: DTP human tumour cell line panel, 48 h
[1] = tested on: A549 NSCLC
[2] = tested on: PC-3 prostate
[3] = tested on: SK-OV-3 ovarian
[4] = tested on: DU-145 prostate
[5] = tested on: SK-MEL-28 melanoma
[6] = tested on: UO-31 renal
[7] = tested on: MALME-3M melanoma
[8] = tested on: UACC-257 melanoma
[9] = tested on: SNB-75 CNS
[10] = tested on: 786-0 renal

Structure (SMILES)	GI50 [1]	TGI [1]	GI50 [2]	TGI [2]	GI50 [3]	TGI [3]	GI50 [4]	TGI [4]	GI50 [5]	TGI [5]	GI50 [6]	TGI [6]	GI50 [7]	TGI [7]	GI50 [8]	TGI [8]	GI50 [9]	TGI [9]	GI50 [10]	TGI [10]
CC[C@H]1CN2CCc3cc(OC)c(OC)cc3[C@@H]2C[C@@H]1C[C@H]1NCCc2c1[nH]c1ccc(O)cc21	0.0192 µM and 0.0336 µM	0.0627 µM and 0.121 µM and 0.321 µM	0.0345 µM	0.814 µM	0.0348 µM and 0.0711 µM	0.142 µM and 0.431 µM and 0.529 µM	0.0249 µM	0.0584 µM	0.0316 µM and 0.0425 µM	0.0813 µM and 0.256 µM and 0.41 µM	0.251 µM and 1.2 µM	0.772 µM and 4.5 µM and 1.9 µM	0.047 µM and 0.336 µM	0.113 µM and 0.744 µM and 0.184 µM	0.223 µM and 0.212 µM	0.666 µM and 0.69 µM and 0.643 µM	0.032 µM and 0.0223 µM	0.111 µM and 0.0732 µM and 0.0544 µM	0.0246 µM and 0.0421 µM	
Cc1[nH]c(/C=C2\C(=O)Nc3ccccc32)c(C)c1CCC(=O)O	24.3 µM	> 100 µM	31.4 µM	> 100 µM	19.5 µM	59.5 µM and 80.6 µM	35.4 µM	> 100 µM	25.4 µM	80 µM and 92.6 µM	11.6 µM	43.6 µM and > 100 µM	10.7 µM	36.8 µM and 75.6 µM	20.4 µM	63 µM and 81.1 µM		56.1 µM and 59.8 µM	44.1 µM	> 100 µM
CN1C(=O)/C(=C/c2c(Cl)n(C)c3ccccc23)c2ccccc21	7.78 µM		2.67 µM		4.84 µM and 1.57 µM	2.91 µM	5.05 µM		5.24 µM and 1.62 µM	3.05 µM	8 µM and 1.24 µM	2.75 µM	7.07 µM		4.53 µM		4.51 µM and 1.96 µM	3.62 µM	3.09 µM	
CCCOc1ccc2sc(NC(=O)OC)nc2c1	4.2 µM	> 100 µM	3.48 µM	> 100 µM	4.36 µM	> 100 µM	4.05 µM	> 100 µM	18.6 µM	> 100 µM	6.07 µM	> 100 µM	3.81 µM	> 100 µM	> 100 µM	> 100 µM	2.58 µM	> 100 µM	> 28.2 µM	> 100 µM
CSc1ccc2c(c1)C(=O)c1c-2n(CCCBr)c(=O)c2cc([N+](=O)[O-])ccc12	7.61 µM	> 100 µM	25.8 µM	> 100 µM	12.1 µM	> 100 µM	3.9 µM	> 100 µM	51.8 µM	> 100 µM	3.63 µM	> 100 µM	11.6 µM	> 100 µM	> 100 µM	> 100 µM	7.9 µM	> 100 µM	2.45 µM	10.5 µM
Cn1cc(C2=C(c3cccc(Br)c3)C(=O)NC2=O)c2ccccc21	11.1 µM	> 25 µM	8.53 µM	> 25 µM	10.3 µM	> 25 µM	> 25 µM	> 25 µM	> 22.9 µM	> 25 µM	6.42 µM	> 25 µM	> 19.2 µM	> 25 µM	> 19.8 µM	> 25 µM	1.18 µM	> 25 µM	12.1 µM	> 25 µM
O=C1NC(=NCCc2cccc(Cl)c2)S/C1=C\c1ccc2ncccc2c1	> 25 µM	> 25 µM	> 25 µM	> 25 µM	> 25 µM	> 25 µM	> 25 µM	> 25 µM	> 25 µM	> 25 µM	> 25 µM	> 25 µM	> 25 µM	> 25 µM	> 25 µM	> 25 µM	> 25 µM	> 25 µM	> 25 µM	> 25 µM
Cc1cc(C)c(/C=C2\C(=O)Nc3ccc(NC(=O)CCCCCCC(=O)NO)cc32)[nH]1	> 100 µM	> 100 µM	0.684 µM	> 100 µM	0.664 µM	4.56 µM	1.49 µM	> 100 µM	0.525 µM	> 100 µM	> 100 µM	> 100 µM	0.237 µM	> 27.4 µM	0.418 µM	> 100 µM	0.227 µM	> 100 µM	15.1 µM	> 100 µM
COc1ccc(-n2c(C)cc(-c3ccccc3)c2C)cc1	2.88 µM	38.7 µM	2.22 µM	> 100 µM	6.83 µM	68.6 µM	4.66 µM	22.3 µM	3.68 µM	> 100 µM	2.24 µM	95.8 µM	1.78 µM	4.53 µM	2.33 µM	7.51 µM	3.37 µM	> 100 µM	1.94 µM	4.85 µM
CCn1c(=O)c2c(=O)c3c4c(oc3oc2c2ccccc21)C(=O)c1ccccc1C4=O	> 100 µM	> 100 µM	8.71 µM	> 100 µM	> 100 µM	> 100 µM	> 100 µM	> 100 µM	> 100 µM	> 100 µM	> 100 µM	> 100 µM	> 100 µM	> 100 µM	> 100 µM	> 100 µM	> 20.8 µM	> 53.3 µM	> 22.7 µM	> 100 µM
O=C1NC(=O)/C(=C\c2ccccc2)C2=C1CCCC2	19.7 µM	51.6 µM	6.36 µM	35.5 µM	14.6 µM	27.8 µM	10.8 µM	22.9 µM	4.14 µM	13.9 µM	7.43 µM	21.8 µM	2.53 µM	9.11 µM	8.11 µM	22.5 µM	11.9 µM	24.7 µM	7.6 µM	20.2 µM
OCCCNc1nccc(-c2c(-c3ccc(F)cc3)nn3cc(C(F)(F)F)ccc23)n1	17.3 µM	> 25 µM	15.1 µM	> 25 µM	13 µM	> 25 µM	12.9 µM	> 25 µM	15.9 µM	> 25 µM	7.07 µM	> 25 µM	14.8 µM	> 25 µM	> 23.4 µM	> 25 µM	> 13.4 µM	> 25 µM	10.2 µM	> 25 µM
